Test results: publication PMC8957246, “Synthesis and diverse biological activity profile of triethylammonium isatin-3-hydrazones” (ADMET & DMPK, 2022)
≈ marks a conversion by molar mass, not a printed value. Counter-ions that a name gives are not always drawn. Marks after values point to notes of the source that are not given here.

How the values were obtained:
[1] = system: platelets (ADP-induced aggregation); test: Platelet aggregation (Born method), ADP-induced; assay type: cell-based; conditions: Homo sapiens, ADP 20 μg/mL, final concentration 2×10^–3 mol/L, median (25-75 percentiles), read-out: Platelets aggregation, % of control, ADP
Procedure: (§1) The in vitro experiments were performed using the blood of healthy male donors aged 18-24 years (total 54 donors). The study was approved by the Ethics Committee of Federal State Budgetary Educational Institution of Higher Education at the Bashkir State Medical University of the Ministry of Health of Russian Federation (No.2 dated 17.10.2012). Informed consent was obtained from all participants before blood sampling. The blood was collected from the cubital vein using the system of vacuum blood collection BD Vacutainer® (Becton, Dickinson and Company, USA). A 3.8 % sodium citrate solution in a 9:1 ratio was used as a venous blood stabiliser. The study of the effect on platelet aggregation was performed using the Born method using the aggregometer «AT-02» (SPC Medtech, Russia). The assessment of antiplatelet activity of the studied compounds and reference preparations was started with the final concentration of 2×10^–3 mol/L. Adenosine diphosphate (ADP; 20 μg/mL) and collagen (5 mg/mL) manufactured by Tehnologia-Standart Company, Russia, were used as inducers of aggregation. The study on the anticoagulant activity was performed by standard recognised clotting tests using the optical two-channel automatic analyser of blood coagulation Solar CGL 2110 (CJSC SOLAR, Belarus). The following parameters were studied: activated partial thromboplastin time (APTT), prothrombin time (PT) and fibrinogen concentrations according to the Clauss method. The determination of anticoagulant activity of the studied compounds and reference preparation was performed in a concentration of 5×10^–4 g/mL using the reagents manufactured by Tehnologia-Standart Company (Barnaul, Russia). The results of the study were processed using the statistical package Statistica 10.0 (StatSoft Inc, USA). The Shapiro–Wilk’s test was used to check the normality of actual data distribution. The form of distribution of the data obtained differed from the normal one; therefore, non-parametric methods were used for further analysis. The data were presented as medians and 25 and 75 percentiles. Analysis of variance was conducted using Kruskal–Wallis test. A p value of 0.05 was considered statistically significant.

[2] = system: platelets (collagen-induced aggregation); test: Platelet aggregation (Born method), collagen-induced; assay type: cell-based; conditions: Homo sapiens, collagen 5 mg/mL, final concentration 2×10^–3 mol/L, median (25-75 percentiles), read-out: Platelets aggregation, % of control, Collagen
Procedure: as §1

[3] = system: Pseudomonas fluorescens EL-2.1; test: Bactericidal activity, agar diffusion, Ps. fluorescens; assay type: cell-based
Description: (§2) Plant pathogenic bacterial strains Micrococcus luteus B-109, Pectobacterium atrosepticum 1043, Pectobacterium carotovorum subsp. carotovorum MI, Pseudomonas fluorescens EL-2.1, and Xanthomonas campestris B-610 and fungal strain Fusarium oxysporum IBPPM 543 were obtained from the specialized scientific culture collection of IBPPM RAS (WFCC no. 975, WDCM no. 1021) (CM IBPPM). Pathogenic fungus Phytophthora cactorum VKM F-985 provided by the All-Russian Collection of Microorganisms (VKM) and deposited at A.E. Favorsky Irkutsk Institute of Chemistry, SB RAS, was also used as test organism. Bacteria M. luteus, P. carotovorum subsp. carotovorum, P. atrosepticum, and Ps. fluorescens were grown in meat-peptone medium (BP), and X. campestris was grown in the medium with glucose, yeast extract, and calcium carbonate (GYCa). Solid media contained Bacto agar (18 g/L); pH was adjusted to 7.2-7.4. All bacterial cultures were grown at 28°C. The mycelial cultures of F. oxysporum and P. cactorum were grown on a glucose-peptone-yeast (GPY) nutrient medium at 27 °C. For inoculum preparation, both fungal strains were initially grown on the agar GPY in Petri dishes and then transferred into the seed medium by punching out 5 mm of the agar plate culture with a self-designed cutter.
(§3) Antibacterial and antifungal activities of the compounds were explored using the agar diffusion method and the technique of a phytopathogen radial growth inhibition. Method of diffusion in agar (measuring the diameter of growth inhibition zones) was used for determining the bactericidal activity. The 6-mm wells were made in ager medium (GYCa for Xanthomonas campestris or BP for other bacteria). Bacterial suspensions were distributed over the agar surface, and the tested compound's solution (150 μl) was added to each well. The width of growth inhibition zones around the wells was determined after incubation for 36-40 h.
(§4) The solutions of tested compounds were prepared with a concentration of 2 mmol/l (stock solution). For comparison, test compounds were also commonly applied disinfecting agents and antibiotics.

[4] = system: Pectobacterium carotovorum subsp. carotovorum MI; test: Bactericidal activity, agar diffusion, P. carotovorum; assay type: cell-based
Description: as §2, §3, §4

[5] = system: Micrococcus luteus B-109; test: Bactericidal activity, agar diffusion, M. luteus; assay type: cell-based
Description: as §2, §3, §4

[6] = system: Xanthomonas campestris B-610; test: Bactericidal activity, agar diffusion, X. campestris; assay type: cell-based
Description: as §2, §3, §4

[7] = system: Pectobacterium atrosepticum 1043; test: Bactericidal activity, agar diffusion, P. atrosepticum; assay type: cell-based
Description: as §2, §3, §4

[8] = system: Phytophthora cactorum VKM F-985; test: Fungicidal activity, radial growth inhibition, P. cactorum; assay type: cell-based; conditions: for Inhibition value, I (%): C 10 μg/mL
Description: as §2
(§5) For the fungicidal activity analysis, radial growth (colony diameters) of the fungi on a solid medium in the absence and in the presence of the compounds 3a,c-g solutions at various concentrations were compared. The method consisted of the following: sterile, melted and then cooled to about 60°C GPY agar medium (20.0 ml) was mixed with the precisely measured volumes of the solutions under question, and poured into a sterile Petri dish (90 mm i.d.). After solidification of GPY agar, the media were inoculated by the fungus using 10-day-old cultures of F. oxysporum or P. cactorum. The inoculation was done by transferring a 5-mm (i.d.) GPY-agar block covered with mycelium to the center of the Petri dish followed by incubation in a thermostat at 27°C. The fungicidal effect was scored by the size of mycelium colony on a Petri dish compared to the control without fungicidal admixtures to GPY agar. Each treatment was performed in at least four replicates in two independent experiments. The observation period ended when the control Petri dish was filled with mycelium (usually after 12 days). The inhibition of the phytopathogen colony growth by the compounds 3a,c-g or fludioxonil solutions was calculated as a percentage by which the mycelium radial propagation was decreased compared to the unaffected control, the latter was taken as 100 % of growth (or zero percent of inhibition). The EC50 value was calculated as the compound concentration at which the radial growth of the fungus colony was decreased by 50 % relative to the non-fungicidal control, according to the formula EC50 = 50C/I based on the approach developed e.g., in [34, 35].
as §4

[9] = system: Fusarium oxysporum IBPPM 543; test: Fungicidal activity, radial growth inhibition, F. oxysporum; assay type: cell-based; conditions: for Inhibition value, I (%): C 10 μg/mL
Description: as §2, §5, §4

[10] = system: Staphylococcus aureus ATCC 6538P FDA 209P; test: Antimicrobial activity, serial dilution (MIC/MBC), Sa; assay type: cell-based; conditions: Staphylococcus aureus
Procedure: (§6) The antimicrobial activity of the test compounds was determined by the serial dilution technique in Muller Hinton Broth 2 and in Sabouradu broth for fungi. The cultures used for testing included Gram-positive bacteria: Staphylococcus aureus ATCC 6538P FDA 209P, Bacillus cereus ATCC 10702 NCTC 8035, Enterococcus faecalis ATCC 29212; Gram-negative bacteria: Escherichia coli ATCC 25922, Pseudomonas aeruginosa ATCC 9027, and fungi: Trichophyton mentagrophytes var. gypseum 1773, and Candida albicans ATCC 10231; methicillin-resistant strains of S. aureus (MRSA) was obtained from hospital patients with chronic tonsillitis in the Republican Clinical Hospital (Kazan, Russia). The bacterial load was 3.0 × 10^5 cfu/ml. The fungi load was 2.0 × 10^3 cfu/ml. The results were recorded every 24 h for 5-7 days. Cultures were incubated at 37 °C. The experiment was repeated three times. […] The minimum inhibitory concentration (MIC) was defined as the minimum concentration of a compound that inhibits the growth of the corresponding test microorganism. The growth of bacteria, as well as the absence of the growth due to the bacteriostatic action of compounds, were recorded.
(§7) Synthesized compounds were further evaluated for antimicrobial activity against test microorganisms: Staphylococcus aureus ATCC 209p (Sa), Bacillus cereus ATCC 8035 (Bc), Escherichia coli CDC F-50 (Ec), Enterococcus faecalis (Ef), Pseudomonas aeruginosa ATCC 9027, Aspergillus niger BKMF-1119, Trichophyton mentagrophytes var. gypseum 1773, and Candida albicans 855-653 including methicillin-resistant strains of S. aureus (MRSA 1 and MRSA 2). The minimum inhibitory (MIC) and minimum bactericidal (MBC) concentrations of ammonium salts were determined against these pathogens (Table 1). Due to the lack of activity of compounds 3a-g against Gram-negative bacterial strains and some fungi, the corresponding data are not shown.

[11] = system: Bacillus cereus ATCC 10702 NCTC 8035; test: Antimicrobial activity, serial dilution (MIC/MBC), Bc; assay type: cell-based; conditions: Bacillus cereus
Procedure: as §6, §7

[12] = system: methicillin-resistant strains of S. aureus (MRSA-2); test: Antimicrobial activity, serial dilution (MIC/MBC), MRSA-2; assay type: cell-based; conditions: Staphylococcus aureus
Procedure: as §6, §7

[13] = system: methicillin-resistant strains of S. aureus (MRSA-1); test: Antimicrobial activity, serial dilution (MIC/MBC), MRSA-1; assay type: cell-based; conditions: Staphylococcus aureus
Procedure: as §6, §7

[14] = system: Enterococcus faecalis ATCC 29212; test: Antimicrobial activity, serial dilution (MIC/MBC), Ef; assay type: cell-based; conditions: ATCC29212
Procedure: as §6, §7

[15] = system: activated partial thromboplastin time (intrinsic coagulation pathway); test: Anticoagulant activity, clotting test APTT; set-up: species or system human; conditions: concentration 5×10^–4 g/mL; median (25-75 percentiles)
Procedure: as §1

CC[N+](CC)(CC)CC(=O)N/N=C1\C(=O)N(Cc2cc(C(C)(C)C)c(O)c(C(C)(C)C)c2)c2ccccc21 (as salt: bromide) [Compound 3a, 2-(2-(1-(3,5-Di-tert-butyl-4-hydroxybenzyl)-2-oxoindolin-3-ylidene)hydrazinyl)-N,N,N-triethyl-2-oxoethanammonium bromide]
melting point: 212 °C

CC[N+](CC)(CC)CC(=O)N/N=C1\C(=O)N(Cc2cc(C(C)(C)C)c(O)c(C(C)(C)C)c2)c2c(C)cccc21 (as salt: bromide) [Compound 3b, 2-(2-(1-(3,5-Di-tert-butyl-4-hydroxybenzyl)-7-methyl-2-oxoindolin-3-ylidene)hydrazinyl)-N,N,N-triethyl-2-oxoethanammonium bromide]
melting point: 154 °C

CCc1cccc2c1N(Cc1cc(C(C)(C)C)c(O)c(C(C)(C)C)c1)C(=O)/C2=N\NC(=O)C[N+](CC)(CC)CC (as salt: bromide) [Compound 3c, 2-(2-(1-(3,5-Di-tert-butyl-4-hydroxybenzyl)-7-ethyl-2-oxoindolin-3-ylidene)hydrazinyl)-N,N,N-triethyl-2-oxoethanammonium bromide]
melting point: 163 °C

CC(=O)Oc1ccccc1C(=O)O [Acetylsalicylic acid, reference compound]
inhibition at 2000 µM [1]: 13.7% | inhibition at 2000 µM [2]: 14.7%

N=C(NCCCCCCNC(=N)NC(=N)Nc1ccc(Cl)cc1)NC(=N)Nc1ccc(Cl)cc1 [Chlorohexidin, reference compound]
width of the inhibition zone ([3]; 500 μg/mL): 4 mm | width of the inhibition zone ([4]; 500 μg/mL): 5 mm | width of the inhibition zone ([5]; 500 μg/mL): 5 mm | width of the inhibition zone ([6]; 500 μg/mL): 5 mm | width of the inhibition zone ([7]; 500 μg/mL): 4 mm

N#Cc1c[nH]cc1-c1cccc2c1OC(F)(F)O2 [Fludioxonil, reference compound]
Inhibition value, I (%) ([8]; age of the fungus 3 days): 46% | Inhibition value, I (%) ([8]; age of the fungus 5 days): 38% | Inhibition value, I (%) ([8]; age of the fungus 7 days): 18% | Inhibition value, I (%) ([8]; age of the fungus 9 days): 12% | Inhibition value, I (%) ([8]; age of the fungus 12 days): 9% | EC50 ([8]; Phytophthora cactorum, 168 h, read-out: EC50, μg/mL at day 7): 27.8 µg/mL (≈ 112 µM) | Inhibition value, I (%) ([9]; age of the fungus 3 days): 38% | Inhibition value, I (%) ([9]; age of the fungus 5 days): 23% | Inhibition value, I (%) ([9]; age of the fungus 7 days): 6% | Inhibition value, I (%) ([9]; age of the fungus 9 days): 4% | EC50 ([9]; Fusarium oxysporum, IBPPM543, 168 h, read-out: EC50, μg/mL at day 7): 83.3 µg/mL (≈ 336 µM)

CCn1cc(C(=O)O)c(=O)c2cc(F)c(N3CCNCC3)cc21 [Norfloxacin, reference compound]
zone of inhibition at 500 µg/mL ([3]; Pseudomonas fluorescens, EL2.1, 500 μg/mL, read-out: width of the inhibition zone): 8 mm | zone of inhibition at 500 µg/mL ([4]; Pectobacterium carotovorum, 500 μg/mL, read-out: width of the inhibition zone): 8 mm | MIC [10]: 7.5 ± 0.5 µM (≈ 2.4 µg/mL) | MBC ([10]; read-out: MBC (converted)): 7.5 ± 0.6 µM (≈ 2.4 µg/mL) | zone of inhibition at 500 µg/mL ([5]; Micrococcus luteus, B109, 500 μg/mL, read-out: width of the inhibition zone): 7 mm | MBC [11]: 24.4 ± 2.1 µM (≈ 7.79 µg/mL) | MIC ([11]; read-out: MIC): 24.4 ± 2.1 µM (≈ 7.79 µg/mL) | zone of inhibition at 500 µg/mL ([6]; Xanthomonas campestris, B610, read-out: width of the inhibition zone): 7 mm | MIC [12]: 30 ± 2.6 µM (≈ 9.58 µg/mL) | MIC [13]: 391 ± 30 µM (≈ 125 µg/mL) | MBC [14]: 7.5 ± 0.6 µM (≈ 2.4 µg/mL) | MIC [14]: 7.5 ± 0.5 µM (≈ 2.4 µg/mL) | zone of inhibition at 500 µg/mL ([7]; Pectobacterium atrosepticum, 1043, 500 μg/mL, read-out: width of the inhibition zone): 7 mm

[Na+].[O-]Cl [sodium hypochlorite, reference compound]
width of the inhibition zone ([3]; 1000 μg/mL): 4 mm | width of the inhibition zone ([4]; 1000 μg/mL): 3 mm | width of the inhibition zone ([5]; 1000 μg/mL): 2.5 mm | width of the inhibition zone ([6]; 1000 μg/mL): 4 mm | width of the inhibition zone ([7]; 1000 μg/mL): 4 mm

Heparin sodium [reference compound]
APTT, % of control [15]: +20.3 (19.7-21.4) ^** % of control
